{
  "source": "patent US20220296628A1",
  "about": "“RNA COMBINATIONS AND COMPOSITIONS WITH DECREASED IMMUNOSTIMULATORY PROPERTIES” (CureVac AG, priority 2019, published 2022)",
  "key": {"mice (strain 129SV) [1]": {"system": "mice (strain 129SV)", "test": "In vivo bioluminescence imaging of PpLuc expression after i.v. injection of LNP-formulated PpLuc mRNA with or without oligonucleotide", "parameters": "species or system mouse", "conditions": "24 hours post single i.v. injection, 10 μg or 30 μg of mRNA (either dose), oligo 20% or 6.7% mass, compared to PpLuc mRNA without Gm18 (FIG. 2)", "protocol": "For preparation of Lipid nanoparticles (LNP) containing both PpLuc mRNA and 2-O-methylated oligonucleotide, first the 2′-O-methylated oligonucleotide was added to PpLuc mRNA at a weight percentage of either 20% or 6.7% (see Table 3). LNP containing PpLuc mRNA either with or without admixture of 2-O-methylated oligonucleotide were prepared using cationic lipid, cholesterol, PEG-lipid and a neutral lipid. The mRNA was diluted to 1 g/L in citrate buffer, pH 4. The ethanolic lipid solution was mixed with the aqueous RNA solution at a ratio of 1:3 (vol/vol) using a Nanoassemblr (PrecisionNanoSystems). The ethanol was then removed and the buffer replaced by 10 mM HEPES, pH 7.4 comprising 9% Sucrose by dialysis. Finally, the LNP-formulated RNA was adjusted to 0.2 g/L. For in vivo experiments, 8 weeks old female mice (around 25 g, strain 129SV) were injected with the various LNP formulations (see tables 4 and 5). 4 animals were used per group. 10 μg or 30 μg of mRNA formulated with or without 2′-O-methylated oligonucleotide were intravenously injected at a concentration of 0.2 g/l. Bioluminescence imaging was performed 6 hours and 24 hours post LNP injection. […] PpLuc expression was quantified from bioluminescence images recorded for 3 minutes starting 5 minutes after i.v. injection of 3 mg of luciferin (see Table 5)."}, "[2]": {"system": "human peripheral blood mononuclear cells (PBMCs)", "test": "PBMC stimulation: DOTAP co-transfection of capped PpLuc mRNA with oligonucleotide, cytokines by CBA", "assay_type": "cell-based", "conditions": "DOTAP co-transfection with capped PpLuc mRNA 1 μg/ml, oligonucleotide 0.25 μg/ml (25% weight), supernatant 24 hours, compared to PpLuc mRNA only (FIG. 1B)", "protocol": "Human peripheral blood mononuclear cells (PBMCs) were isolated from heparinized blood of healthy volunteers by standard Ficoll-Hypaque density gradient centrifugation (Ficoll 1.078 g/ml). PBMCs were re-suspended in RPMI 1640 supplemented with 10% heat-inactivated FCS. After counting, cells are re-suspended at 50 million cells per ml in fetal calf serum, 10% DMSO, and frozen. Before usage, the cells are thawed.\nFor transfection experiments, 2×10^5 human PBMCs per well were seeded into each well of a 96-well plate in X-Vivo 15 medium (Lonza). For preparation of DOTAP complexes containing both immunostimulatory non-coding RNA and a 2′-O-methylated oligonucleotide (SEQ ID NO: 85), the oligonucleotide was first added to immunostimulatory non-coding RNA at a weight percentage of 25%. For preparation of DOTAP complexes containing both PpLuc mRNA and a 2′-O-methylated oligonucleotide, the oligonucleotide was first added to PpLuc mRNA at a weight percentage of 25%. The molar ratio of PpLuc mRNA to oligonucleotide was thus […] (MW (Oligonucleotide)=2907 g/mol, MW (PpLuc mRNA)=652377 g/mol). DOTAP complexes containing either immunostimulatory non-coding RNA or PpLuc mRNA without or with oligonucleotide were formed at a ratio of 3 μl of DOTAP per 1 μg of RNAdjuvant or 1 μg of mRNA. […] To quantify background stimulation, PBMC were incubated either with DOTAP alone (“vehicle”) or medium only. […]\nIn supernatants collected from PBMC stimulated without or with 2-O-methylated oligonucleotide, the concentrations of IFN-α, IFN-γ, TNF, were measured by Cytometric Bead Array (CBA) according to the manufacturer's instructions (BD Biosciences) using the following kits: Human Soluble Protein Master Buffer Kit (catalog no. 558264), Assay Diluent (catalog no. 560104), Human IFN-α Flex Set (catalog no. 560379), Human IFN-γ Flex Set (catalog no. 558269), Human TNF Flex Set (catalog no. 560112); all kits from BD Biosciences. The data was analyzed using the FCAP Array v3.0 software (BD Biosciences)."}, "mice (strain 129SV) [3]": {"system": "mice (strain 129SV)", "test": "Serum IFNα by ELISA 24 hours post LNP injection", "assay_type": "in vivo, mouse", "conditions": "24 hours post i.v. LNP injection, in a dose-dependent manner (oligo 20% or 6.7% mass), compared to PpLuc mRNA only (FIG. 4B)", "protocol": "For preparation of Lipid nanoparticles (LNP) containing both PpLuc mRNA and 2-O-methylated oligonucleotide, first the 2′-O-methylated oligonucleotide was added to PpLuc mRNA at a weight percentage of either 20% or 6.7% (see Table 3). LNP containing PpLuc mRNA either with or without admixture of 2-O-methylated oligonucleotide were prepared using cationic lipid, cholesterol, PEG-lipid and a neutral lipid. The mRNA was diluted to 1 g/L in citrate buffer, pH 4. The ethanolic lipid solution was mixed with the aqueous RNA solution at a ratio of 1:3 (vol/vol) using a Nanoassemblr (PrecisionNanoSystems). The ethanol was then removed and the buffer replaced by 10 mM HEPES, pH 7.4 comprising 9% Sucrose by dialysis. […] To analyse the influence of the 2′-O-methylated oligonucleotide on immunostimulation, the concentrations of IFNγ, TNFα, IL-6, MIP-1β, RANTES, and MCP1 were measured in sera from blood collected 6 hours post LNP injection by Cytometric Bead Array (CBA), performed as described in paragraph 2.3. […] To further assess the influence of the 2′-O-methylated oligonucleotide on immunostimulation, the concentration of IFNα was measured in sera from blood collected 24 hours post LNP injection by ELISA."}},
  "data": [
    {"substance": "5′-GAG CGmG CCA-3′ (GAGCNGCCA; 2'-O-methyl guanosine at position 5; 9mer oligonucleotide; modified_base (5)..(5) n can be any nucleotide, wherein the nucleotide is 2-O-methylated, preferably a 2-O-methylated guanosine) [Gm18, 9-mer 2′-O-methylated RNA oligonucleotide; position 5 is 2′-O-methylated guanosine (Gm); antagonist of TLR7 and 8]", "values": [
      {"measurement": "expression of PpLuc (bioluminescence imaging)", "setting": "mice (strain 129SV) [1]", "result": "increases the expression"},
      {"measurement": "secretion of cytokine INF-a", "setting": "[2]", "result": "reduced secretion"},
      {"measurement": "secretion of cytokine INF-y", "setting": "[2]", "result": "reduced secretion"},
      {"measurement": "secretion of cytokine TNF", "setting": "[2]", "result": "reduced secretion"},
      {"measurement": "release of IFNα in sera (ELISA)", "setting": "mice (strain 129SV) [3]", "result": "strongly decreases the release"}
    ]}
  ]
}
